Data as given in patent US12370161B2, “Composition for treating atopy or pruritus comprising N-acetyl or N-acyl amino acid” (STEMDR INC., priority 2017, dated 2025).
Entries after “also recorded” stand apart in the source; their conditions may differ.

Columns and labels:
[1] = tested on: atopic dermatitis-induced Nc/Nga mouse; experiment: SCORAD clinical skin score, DNFB-induced atopic dermatitis in Nc/Nga mouse; type: in vivo
Outline: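 Nc/Nga mice sensitized with 0.35% DNFB on shaved back, then challenged with 0.15% DNFB every other day; 0.1% N-acetyl/N-acylamino acid in PBS applied daily to back skin days 15–21, 12 h apart from DNFB. Blinded SCORAD: edema, erythema, eschar, dryness, abrasion, lichenification each graded 0–3, summed.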

[2] = tested on: pruritus caused by atopic contact dermatitis; experiment: Pruritus inhibition test, pruritus induced with DNFB; type: in vivo, mouse; settings: 0.1% in physiological saline applied once onto right ear; pruritus measured for 1 hour; listed as L-form N-acetyltryptophan
IgE [3] = experiment: Serum IgE level by ELISA, Nc/Nga; type: in vivo, mouse; settings: atopy-induced Nc/Nga mice
Procedure: (§1) After treatment with the test substance, the mice were sacrificed and blood was taken from the heart. After isolating serum from the blood, IgE level was measured. Specifically, after attaching antibodies diluted in a buffer solution onto a 96-well plate and incubating overnight at 4° C., experiment was conducted using an IgE ELISA kit (BD Biosciences, San Diego, CA) according to the provided manual. The quantity of the IgE protein was determined by measuring absorbance at 450 nm using a microplate reader.

interferon γ [4] = experiment: Interferon γ mRNA in skin tissue by quantitative real-time PCR, Nc/Nga; type: in vivo, mouse; settings: atopy-induced Nc/Nga mice, normalized to β-actin
Procedure: (§2) After isolating total RNA from the atopy-induced skin tissue using 500 μL of Trizol (Life Technologies, USA) according to the manufacturer's protocol and synthesizing cDNA using the Superscript III reverse transcriptase (Life Technologies, USA), real-time PCR was conducted by reacting with the primers of IL4 and interferon γ to be analyzed. The real-time PCR was conducted on a StepOne Plus PCR cycler (Applied Biosystems) using SYBR Green (Applied Biosystems, Foster City, CA). The mRNA expression data were analyzed by the ΔΔCT method and were normalized to β-actin for gene detection. The primers necessary for the real-time PCR were purchased from Qiagen (USA). […] IL4 is known to induce TH2 response and interferon γ is known to induce TH1 response.

[5] = tested on: atopic dermatitis-induced Nc/Nga mouse; experiment: Hematoxylin/eosin staining of back skin tissue, epidermal and dermal thickness; type: in vivo; settings: 5 μm slices
From the text: After extracting back skin tissues of the atopic dermatitis-induced and drug-treated Nc/Nga mice of Example 2, the tissues were fixed with an Accustain formalin-free fixative solution and then prepared into paraffin blocks. The paraffin blocks were sliced to a thickness of 5 μm and the change in the thickness of the epidermal and dermal layers was observed by staining with hematoxylin/eosin.

interferon γ [6] = experiment: Interferon γ mRNA in skin tissue by quantitative real-time PCR, Balb/c; type: in vivo, mouse; settings: atopy-induced Balb/c mice, normalized to β-actin
Procedure: as §2

IgE [7] = experiment: Serum IgE level by ELISA, Balb/c; type: in vivo, mouse; settings: atopy-induced Balb/c mice
Procedure: as §1

[8] = tested on: atopic dermatitis-induced Balb/c mouse; experiment: SCORAD clinical skin score, DNFB-induced atopic dermatitis in Balb/c mouse; type: in vivo; design: key to Mouse 1 Sum / Mean (of Sum, SCORAD) / Mouse 2 Sum / Mouse 3 Sum: sum of symptom grades, each 0 (none) to 3 (severe)
Outline: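 Mice sensitized with 0.35% DNFB on shaved back, then challenged with 0.25% DNFB on days 6–27; 0.1% N-acetyl/N-acylamino acid in PBS applied topically daily days 22–28, 12 h apart from DNFB. Blinded SCORAD: six symptoms each graded 0–3, summed.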

IL4 [9] = experiment: IL4 mRNA in skin tissue by quantitative real-time PCR, Balb/c; type: in vivo, mouse; settings: atopy-induced Balb/c mice, normalized to β-actin
Procedure: as §2

IL4 [10] = experiment: IL4 mRNA in skin tissue by quantitative real-time PCR, Nc/Nga; type: in vivo, mouse; settings: atopy-induced Nc/Nga mice, normalized to β-actin
Procedure: as §2

[11] = Mouse 1, DNFB Balb/c, 0.1% topical day 22-28, grade 0-3
[12] = Mouse 2, DNFB Balb/c, 0.1% topical day 22-28, grade 0-3
[13] = Mouse 3, DNFB Balb/c, 0.1% topical day 22-28, grade 0-3

## CC(=O)N[C@@H](Cc1c[nH]c2ccccc12)C(=O)O [N-acetyl-L-tryptophan]
[1]; Nc/Nga atopic dermatitis model, 0.1% topical
  atopic dermatitis-treating effect (SCORAD, FIG. 3A): showed atopic dermatitis-treating effect
[1]; Nc/Nga atopic dermatitis model, 0.1%, listed as L-form N-acetyltryptophan
  dermatitis-treating effect of L-, L/D- and D-form (FIG. 6): remarkable effect
[1]; Nc/Nga, treated for 7 days, day 22
  effect in Nc/Nga model (back skin images, FIG. 3B): remarkable effect
[2]
  pruritus-relieving effect (FIG. 7): significantly inhibited pruritus
IgE [3]
  serum IgE level (FIG. 4B): significant decrease
Interferon γ [4]
  level of interferon γ in the skin tissue (FIG. 5B): significantly decreased
[5]
  thickness of the epidermal and dermal layers (FIG. 3C): significantly decreased
Interferon γ [6]
  level of interferon γ in the skin tissue (FIG. 5A): significantly decreased
IgE [7]
  serum IgE level (FIG. 4A): significant decrease
[8]; Balb/c atopic dermatitis model, 0.1% topical, P<0.05 versus DNFB group
  skin-soothing and atopic dermatitis-treating effect (SCORAD, Table 1, FIG. 2A): significant skin-soothing and atopic dermatitis-treating effects; also recorded: significant atopic dermatitis-treating effect
[8]; Balb/c, treated for 7 days, day 29
  apparent degree of dermatitis (back skin images, FIG. 2B): decreased remarkably
[8]; Mouse 1, DNFB Balb/c, 0.1% in PBS, 200 μL on back skin daily day 22-28, grade 0-3 (0 no symptom, 1 mild, 2 moderate, 3 severe)
  Mouse 1 Erythema: 1
[8]; [11]
  Mouse 1 Abrasion: 1
  Mouse 1 Dryness: 0
  Mouse 1 Edema: 1
  Mouse 1 Eschar: 1
  Mouse 1 Lichenification: 1
[8]; Mouse 1, DNFB Balb/c, 0.1% topical day 22-28, overall dermatitis score, sum of individual scores
  Mouse 1 Sum: 5
[8]; [12]
  Mouse 2 Abrasion: 0
  Mouse 2 Dryness: 1
  Mouse 2 Edema: 1
  Mouse 2 Erythema: 0
  Mouse 2 Eschar: 1
  Mouse 2 Lichenification: 0
[8]; Mouse 2, DNFB Balb/c, 0.1% topical day 22-28, overall dermatitis score, sum of individual scores
  Mouse 2 Sum: 3
[8]; [13]
  Mouse 3 Abrasion: 2
  Mouse 3 Dryness: 0
  Mouse 3 Edema: 0
  Mouse 3 Erythema: 0
  Mouse 3 Eschar: 2
  Mouse 3 Lichenification: 0
[8]; Mouse 3, DNFB Balb/c, 0.1% topical day 22-28, overall dermatitis score, sum of individual scores
  Mouse 3 Sum: 4
[8]; mean of 3 mice, DNFB Balb/c, 0.1% topical day 22-28
  Mean (of Sum, SCORAD): 4
IL4 [9]
  level of IL4 in the skin tissue (FIG. 5A): significantly decreased
IL4 [10]
  level of IL4 in the skin tissue (FIG. 5B): significantly decreased
